Experimental data from US12419307B2, “Mixtures comprising indazole pesticides” (FMC Corporation, priority 2019, dated 2025).
Read-outs that look alike come from different tables or passages of the source.

Assays:
Type in all cases: in vivo
[1] = test system: diamondback moth (Plutella xylostella L.); assay: Test E: diamondback moth control on mustard plants, contact and/or systemic, plant damage rating after 6 days
Method: (§1) The pest control protection afforded by the mixtures or compositions is not limited, however, to these species. The analysis of enhanced activity between the mixtures or compositions was determined using Colby's equation. The average % mortality data for the test compounds alone were inserted into the Colby's equation. If the observed (obs) average % mortality was higher than “p”, the expected (exp) % mortality, the mixture or composition had enhanced effects. If the observed average % mortality was equal to or lower than the expected mortality, the mixture or composition either had no enhanced effect. For bioassays where insect feeding damage was evaluated, enhanced activity is identified when the observed plant damage is less than the expected plant damage rating; ratings ranged between 0 (no damage) and 10 (dead plant) and each value was converted to a % plant protection. 100−(Obs Plant Damage*10)
For evaluating control of diamondback moth (Plutella xylostella L.) through contact and/or systemic means, each test unit consisted of a small open container with a 10- to 12-day-old mustard plant inside. Test compounds were formulated and sprayed with 3 replications as described for Test A. After spraying, the test units were allowed to dry for 1 hour before they were infested with 30-50 neonate larvae. A black, screened cap was placed on the top of each container. The test units were held for 6 days in a growth chamber at 24-25° C. and 70% relative humidity. Each test unit was then visually assessed for plant damage and rated 0-10, where 0=undamaged and 10=plant is dead; the results are listed in Tables 6a-b.

[2] = test system: Potato Leafhopper (Empoasca fabae Harris); assay: Test C: Potato Leafhopper control on bean plants, insect mortality after 6 days; conditions: read-out: % Mortality (obs)
Method: as §1
For evaluating control of Potato Leafhopper (Empoasca fabae Harris) through contact and/or systemic means, each test unit consisted of a small open container with a 5- to 6-day-old Longio bean plant (primary leaves emerged) inside. White sand was added to the top of the soil, and one of the primary leaves was excised prior to application. Test compounds were formulated and sprayed with 3 replications as described for Test A. After spraying, the test units were allowed to dry for 1 hour before they were infested with 5 potato leafhoppers (18- to 21-day-old adults). A black, screened cap was placed on the top of each container. The test units were held for 6 days in a growth chamber at 19-21° C. and 50-70% relative humidity.

[3] = test system: fall armyworm (Spodoptera frugiperda (J. E. Smith)); assay: Test E: fall armyworm control on corn plants, plant damage rating and mortality after 6 days; conditions: Spodoptera frugiperda, 144 h, read-out: Plant Protection (obs)
Method: as §1
For evaluating control of fall armyworm (Spodoptera frugiperda (J. E. Smith)) the test unit consisted of a small open container with a 4-5-day-old corn (maize) plant inside. This was pre-infested with 10-15 1-day-old larvae on a piece of insect diet. Test compounds were formulated and sprayed with 3 replications as described for Test A. After spraying of the formulated test compound, the test units were maintained in a growth chamber for 6 days at 25° C. and 70% relative humidity. Plant feeding damage was then visually assessed based on foliage consumed, and larvae were assessed for mortality. Each test unit was then visually assessed for plant damage and rated 0-10, where 0=undamaged and 10=plant is dead; the results are listed in Tables 6d-i.

[4] = test system: diamondback moth (Plutella xylostella L.); assay: Test E: diamondback moth control through ingestion only, sprayed cabbage leaf tissue (Dipel), mortality after 4 days; conditions: Table 6c, read-out: % Mortality (obs)
Method: as §1
For evaluating control of diamondback moth (Plutella xylostella L.) through ingestion only, the test substance Dipel® (active ingredient Bacillus thuringiensis kurstaki) was formulated by diluting in water and then adding an MSO based adjuvant at 0.1% v/v. Cabbage plants were sprayed with Dipel® to runoff and allowed to dry for three hours. Once dry, plants leaf tissue was excised and one piece was placed into one well in an eight well tray. Test units were maintained in a growth chamber at 24-25° C. and 70% relative humidity.

[5] = test system: corn planthopper (Peregrinus maidis (Ashmead)); assay: Test C: corn planthopper control on corn plants, insect mortality after 6 days; conditions: Peregrinus maidis, read-out: % Mortality (obs)
Method in brief: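 3-4-day-old potted corn plants sprayed at 250, 50 and/or 10 ppm (contact/systemic), dried 1 h, then infested with ~15-20 nymphs 18-21 days old. Mortality scored after 6 days at 19-21 °C, 50-70% RH; mixture effects judged against Colby-expected mortality.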

In the case of `O=C(NC1(C(F)F)CC1)c1cccc2nn(-c3cccnc3)cc12` [Cpd 5, N-[1-(difluoromethyl)cyclopropyl]-2-(3-pyridinyl)-2H-indazole-4-carboxamide], the “Plant Protection (obs)” value ([1]; Table 6a, 50 ppm) is reported as 0.0, the “Plant Protection (obs)” value ([1]; Table 6a, 250 ppm) is reported as 0.0 and the “Plant Protection (obs)” value ([1]; Table 6b, 50 ppm) is reported as 0.0. For the same compound, the “Plant Protection (obs)” value ([1]; Table 6b, 250 ppm) was 0.0, the mortality at 50 ppm ([2]; Table 4a) was 0% and the mortality at 250 ppm ([2]; Table 4a) was 26.7%. It also gave a mortality at 50 ppm ([2]; Table 4b) of 0%, a mortality at 250 ppm ([2]; Table 4b) of 6.7% and a mortality at 50 ppm ([2]; Table 4c) of 6.7%. For the same compound, the mortality at 250 ppm ([2]; Table 4c) was 26.7%, the pest or weed control at 50 ppm ([3]; Table 6e) was 0% and the pest or weed control at 250 ppm ([3]; Table 6e) was 0%. For the same compound, the pest or weed control at 50 ppm ([3]; Table 6f) was 0%, the pest or weed control at 250 ppm ([3]; Table 6f) was 0% and the pest or weed control at 50 ppm ([3]; Table 6g) was 0%. The pest or weed control at 250 ppm ([3]; Table 6g) was 0%, the pest or weed control at 50 ppm ([3]; Table 6i) was 0% and the pest or weed control at 250 ppm ([3]; Table 6i) was 13.3%. It also gave a pest or weed control at 50 ppm ([3]; Table 6h) of 0%, a pest or weed control at 250 ppm ([3]; Table 6h) of 0% and a pest or weed control at 50 ppm ([3]; Table 6d) of 0%. It also gave a pest or weed control at 250 ppm ([3]; Table 6d) of 13.3%, a mortality at 50 ppm ([4]; 50 ppm) of 21% and a mortality at 250 ppm ([4]; 250 ppm) of 25%. For the same compound, the mortality at 50 ppm ([5]; 96 h, Table 4d) was 5.3%, the mortality at 250 ppm ([5]; 96 h, Table 4d) was 75% and the mortality at 50 ppm ([5]; Table 4e) was 21.6%. It also gave a mortality at 250 ppm ([5]; Table 4e) of 13.1%, a mortality at 50 ppm ([5]; Table 4f) of 15.3% and a mortality at 250 ppm ([5]; Table 4f) of 22.4%. It also gave a mortality at 50 ppm ([5]; Table 4g) of 15.3% and a mortality at 250 ppm ([5]; Table 4g) of 22.4%.
